Reference: the NIST ThermoML archive (doi:10.1021/je9010882)
Values joined by “and” are separate entries in the source; they are usually repeats but may differ in a detail not shown here. Equal entries are not always repeated.

Legend:
[1] = 101 kPa, Liquid; for speed of sound: Pulse-echo method
[2] = xn = mol fraction of the nth substance listed; settings: 101 kPa, Liquid; for speed of sound: Pulse-echo method

OCCO [1,2-ethanediol]
[1]
Settings | mass density [kg/m3] | speed of sound
293.15 K | 1113.37 | –
298.15 K | – | 1654.4 m/s and 1655.2 m/s

OCCO [1,2-ethanediol] + CCCCC(CC)CO
Settings | speed of sound [m/s]
[2], 298.15 K, x1 = 1 | 1655.2

OCCO [1,2-ethanediol] + CCCCCCCCCO
Settings | mass density [kg/m3]
[2], 293.15 K, x1 = 1 | 1113.37

OCCO [1,2-ethanediol] + CCCCCCCO
Settings | speed of sound [m/s]
[2], 298.15 K, x1 = 1 | 1655.2

OCCO [1,2-ethanediol] + CCO
[2], 298.15 K
Settings | mass density [kg/m3] | speed of sound [m/s]
x1 = 0.1002 | 819.39 | 1187.5
x1 = 0.198 | 852.357 | 1231.7
x1 = 0.3014 | 886.918 | 1279.7
x1 = 0.3462 | 901.797 | –
x1 = 0.3998 | – | 1328
x1 = 0.4944 | 950.526 | 1374.9
x1 = 0.6428 | 998.611 | 1454.5
x1 = 0.7499 | 1032.4 | 1513.4
x1 = 0.8498 | 1063.88 | 1569.5
x1 = 1 | – | 1654.4

CCCCC(CC)CO (stereo not given) [2-ethyl-1-hexanol]
[1], 298.15 K
Settings | mass density [kg/m3] | speed of sound [m/s]
– | 828.667 | 1318.4

CCCCC(CC)CO (stereo not given) [2-ethyl-1-hexanol] + OCCO
[2], 298.15 K
Settings | mass density [kg/m3] | speed of sound [m/s]
x2 = 0 | 828.667 | 1318.4
x2 = 0.1858 | 848.929 | 1334.2
x2 = 0.2952 | 863.973 | 1345.5
x2 = 0.4043 | 881.937 | 1358.8
x2 = 0.4512 | 890.807 | –
x2 = 0.4914 | 899.091 | 1372.4
x2 = 0.599 | 924.736 | 1394.9
x2 = 0.6996 | 954.672 | 1423.5
x2 = 0.7985 | 991.938 | 1468.2
x2 = 0.8507 | 1015.69 | –
x2 = 0.9 | 1041.98 | 1539.4

CCO [ethanol]
[1], 298.15 K
Settings | mass density [kg/m3] | speed of sound [m/s]
– | 785.144 | 1142

CCO [ethanol] + OCCO
[2], 298.15 K, x2 = 0
Settings | mass density [kg/m3] | speed of sound [m/s]
– | 785.144 | 1142

CCCCCCCO [heptan-1-ol]
[1], 298.15 K
Settings | mass density [kg/m3] | speed of sound [m/s]
– | 818.793 | 1327

CCCCCCCO [heptan-1-ol] + OCCO
[2], 298.15 K
Settings | mass density [kg/m3] | speed of sound [m/s]
x2 = 0 | 818.793 | 1327
x2 = 0.0668 | 826.183 | 1330.3
x2 = 0.1162 | 832.262 | –
x2 = 0.2007 | 843.633 | 1339.2
x2 = 0.2946 | 858.174 | 1346.9
x2 = 0.4022 | 877.754 | 1359.6
x2 = 0.4834 | 895.05 | 1371.6
x2 = 0.5508 | 911.359 | 1384.3
x2 = 0.6087 | 927.049 | 1398.5
x2 = 0.6766 | 948.151 | 1418.2
x2 = 0.7988 | 994.195 | 1470.8
x2 = 0.894 | 1041.3 | 1538

CCCCCCCCCO [nonan-1-ol]
[1], Vibrating tube method
Settings | mass density [kg/m3]
293.15 K | 827.65
298.15 K | 824.238

CCCCCCCCCO [nonan-1-ol] + OCCO
mass density [kg/m3], [2]
Settings | x2 = 0 | x2 = 0.1047 | x2 = 0.204 | x2 = 0.2878 | x2 = 0.3927 | x2 = 0.5203 | x2 = 0.5982 | x2 = 0.703 | x2 = 0.7805 | x2 = 0.9004
293.15 K | 827.65 | 837.118 | 847.778 | 858.547 | 874.431 | 898.673 | 917.33 | 948.15 | 977.295 | 1038.17
298.15 K | 824.238 | 833.672 | 844.308 | 855.056 | 870.919 | 895.129 | 913.771 | 944.568 | 973.695 | 1034.58
